Patent publication US8314112B2 (Novartis AG, priority 2008, dated 2012)

Molecular target: T1, human ALK5 (kinase domain, ALK5 T204D) (Homo sapiens, UniProt P36897, T204D)
T1 construct: The kinase domain of human ALK5 (amino acids 200-503); made in house; host or cells: insect cells (baculovirus)
T1 sequence (P36897 200-503 T204D): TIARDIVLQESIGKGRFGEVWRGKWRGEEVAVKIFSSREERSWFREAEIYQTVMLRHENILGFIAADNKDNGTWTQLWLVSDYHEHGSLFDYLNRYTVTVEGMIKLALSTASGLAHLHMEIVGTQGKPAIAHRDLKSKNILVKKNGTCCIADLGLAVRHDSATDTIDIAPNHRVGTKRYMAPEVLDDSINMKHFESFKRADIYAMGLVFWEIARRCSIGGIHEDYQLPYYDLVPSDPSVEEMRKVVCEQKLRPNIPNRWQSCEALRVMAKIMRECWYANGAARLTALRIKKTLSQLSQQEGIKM
Experiment: ALK5 kinase assay ([33P] phosphate incorporation into casein)
Type: biochemical
Details: casein substrate, 1 μM unlabelled ATP
Procedure, shortened: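 His-tagged human ALK5 T204D kinase domain (aa 200-503, constitutively active, baculovirus/insect-cell expressed), 50 ng/well, preincubated 10 min with compound and dephosphorylated casein (200 μg/well) in Tris pH 7.4/MgCl2/MnCl2. Reaction started with 1 μM ATP plus [33P]ATP, 50 min at room temperature, EDTA-stopped; casein-bound 33P counted by scintillation after filter capture.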

Row | IC50 [nM] | Structure (SMILES)
1 | 10 | COC(=O)CN(C)Cc1ccc(-c2cncc(-c3cc(-c4cccc(C)n4)nc4[nH]ccc34)c2)cc1 [Example 152, [Methyl-(4-{5-[6-(6-methyl-pyridin-2-yl)-1H-pyrrolo[2,3-b]pyridin-4-yl]-pyridin-3-yl}-benzyl)-amino]-acetic acid methyl ester]
2 | 11 | Cc1cccc(-c2cc(-c3cncc(-c4ccc(CN(C)CCO)cc4)c3)c3cc[nH]c3n2)n1 [Example 153, 2-[Methyl-(4-{5-[6-(6-methyl-pyridin-2-yl)-1H-pyrrolo[2,3-b]pyridin-4-yl]-pyridin-3-yl}-benzyl)-amino]-ethanol]
3 | 6.4 | Cc1cccc(-c2cc(-c3cncc(-c4ccc(CN(C)CC(=O)O)cc4)c3)c3cc[nH]c3n2)n1 [Example 154, [Methyl-(4-{5-[6-(6-methyl-pyridin-2-yl)-1H-pyrrolo[2,3-b]pyridin-4-yl]-pyridin-3-yl}-benzyl)-amino]-acetic acid acid]
4 | 48 | Cc1cccc(-c2cc(-c3cncc(C#CCN4CCC(F)(F)C4)c3)c3cc[nH]c3n2)n1 [Example 155, 4-{5-[3-(3,3-Difluoro-pyrrolidin-1-yl)-prop-1-ynyl]-pyridin-3-yl}-6-(6-methyl-pyridin-2-yl)-1H-pyrrolo[2,3-b]pyridine]
5 | 11 | Cc1cccc(-c2cc(-c3cncc(-c4cccc(CC(=O)O)c4)c3)c3cc[nH]c3n2)n1 [Example 156, (3-{5-[6-(6-Methyl-pyridin-2-yl)-1H-pyrrolo[2,3-b]pyridin-4-yl]-pyridin-3-yl}-phenyl)-acetic acid]
6 | 8 | Cc1cccc(-c2cc(-c3cncc(-c4ccc(CC(=O)O)cc4)c3)c3cc[nH]c3n2)n1 [Example 157, (4-{5-[6-(6-Methyl-pyridin-2-yl)-1H-pyrrolo[2,3-b]pyridin-4-yl]-pyridin-3-yl}-phenyl)-acetic acid]
7 | 27 | Cc1cccc(-c2cc(-c3cncc(C#CCN4CCOCC4)c3)c3cc[nH]c3n2)n1 [Example 158, 6-(6-Methyl-pyridin-2-yl)-4-[5-(3-morpholin-4-yl-prop-1-ynyl)-pyridin-3-yl]-1H-pyrrolo[2,3-b]pyridine]
8 | 6.5 | Cc1cccc(-c2cc(-c3cncc(-c4ccc(CCC(=O)O)cc4)c3)c3cc[nH]c3n2)n1 [Example 159, 3-(4-{5-[6-(6-Methyl-pyridin-2-yl)-1H-pyrrolo[2,3-b]pyridin-4-yl]-pyridin-3-yl}-phenyl)-propionic acid]
9 | 5.9 | Cc1cccc(-c2cc(-c3cncc(-c4ccc(C(C)(C)N(C)C)cc4)c3)c3cc[nH]c3n2)n1 [Example 160, Dimethyl-[1-methyl-1-(4-{5-[6-(6-methyl-pyridin-2-yl)-1H-pyrrolo[2,3-b]pyridin-4-yl]-pyridin-3-yl}-phenyl)-ethyl]-amine]
10 | 19 | Cc1cccc(-c2cc(-c3cncc(-c4ccc(C(C)(C)N5CCOCC5)cc4)c3)c3cc[nH]c3n2)n1 [Example 161, 4-{5-[4-(1-Methyl-1-morpholin-4-yl-ethyl)-phenyl]-pyridin-3-yl}-6-(6-methyl-pyridin-2-yl)-1H-pyrrolo[2,3-b]pyridine]
11 | 7 | Cc1cccc(-c2cc(-c3cncc(-c4ccc(C(C)(C)NCCO)cc4)c3)c3cc[nH]c3n2)n1 [Example 162, 2-[1-Methyl-1-(4-{5-[6-(6-methyl-pyridin-2-yl)-1H-pyrrolo[2,3-b]pyridin-4-yl]-pyridin-3-yl}-phenyl)-ethylamino]-ethanol]
12 | 6.6 | Cc1cccc(-c2cc(-c3cncc(-c4ccc(C(C)(C)N(C)CCO)cc4)c3)c3cc[nH]c3n2)n1 [Example 163, 2-{Methyl-[1-methyl-1-(4-{5-[6-(6-methyl-pyridin-2-yl)-1H-pyrrolo[2,3-b]pyridin-4-yl]-pyridin-3-yl}-phenyl)-ethyl]-amino}-ethanol]

Further lines, the compound ahead of its results:

Row | Structure (SMILES) | IC50 [nM]
13 | COC(=O)CNCc1ccc(-c2cncc(-c3cc(-c4cccc(C)n4)nc4[nH]ccc34)c2)cc1 [Example 133, (4-{5-[6-(6-methyl-pyridin-2-yl)-1H-pyrrolo[2,3-b]pyridin-4-yl]-pyridin-3-yl}-benzylamino)-acetic acid methyl ester] | 7
14 | Cc1cccc(-c2cc(-c3cncc(-c4ccc(CN5CCC(F)(F)C5)cc4)c3)c3cc[nH]c3n2)n1 [Example 134, 4-{5-[4-(3,3-Difluoro-pyrrolidin-1-ylmethyl)-phenyl]-pyridin-3-yl}-6-(6-methyl-pyridin-2-yl)-1H-pyrrolo[2,3-b]pyridine] | 39
15 | Cc1cccc(-c2cc(-c3cncc(-c4ccc(CNCCO)cc4)c3)c3cc[nH]c3n2)n1 [Example 135, 2-(4-{5-[6-(6-Methyl-pyridin-2-yl)-1H-pyrrolo[2,3-b]pyridin-4-yl]-pyridin-3-yl}-benzylamino)-ethanol] | 3.3
16 | Cc1cccc(-c2cc(-c3cncc(-c4ccc(CNCC(=O)O)cc4)c3)c3cc[nH]c3n2)n1 [Example 136, (4-{5-[6-(6-Methyl-pyridin-2-yl)-1H-pyrrolo[2,3-b]pyridin-4-yl]-pyridin-3-yl}-benzylamino)-acetic acid] | 10
17 | Cc1cccc(-c2cc(-c3cncc(-c4ccc(CN5CCN(C(C)C)CC5)cc4)c3)c3cc[nH]c3n2)n1 [Example 137, 4-{5-[4-(4-Isopropyl-piperazin-1-ylmethyl)-phenyl]-pyridin-3-yl}-6-(6-methyl-pyridin-2-yl)-1H-pyrrolo[2,3-b]pyridine] | 9
18 | Cc1cccc(-c2cc(-c3cncc(-c4ccc(CN5CC(O)C5)cc4)c3)c3cc[nH]c3n2)n1 [Example 138, 1-(4-{5-[6-(6-Methyl-pyridin-2-yl)-1H-pyrrolo[2,3-b]pyridin-4-yl]-pyridin-3-yl}-benzyl)-azetidin-3-ol] | 11
19 | Cc1cccc(-c2cc(-c3cncc(-c4ccc(CNCCCO)cc4)c3)c3cc[nH]c3n2)n1 [Example 139, 3-(4-{5-[6-(6-Methyl-pyridin-2-yl)-1H-pyrrolo[2,3-b]pyridin-4-yl]-pyridin-3-yl}-benzylamino)-propan-1-ol] | 9
20 | Cc1cccc(-c2cc(-c3cncc(-c4ccc(CNCCC(=O)O)cc4)c3)c3cc[nH]c3n2)n1 [Example 140, 3-(4-{5-[6-(6-Methyl-pyridin-2-yl)-1H-pyrrolo[2,3-b]pyridin-4-yl]-pyridin-3-yl}-benzylamino)-propionic acid] | 6.2
21 | COC(=O)CN(C)Cc1cccc(-c2cncc(-c3cc(-c4cccc(C)n4)nc4[nH]ccc34)c2)c1 [Example 141, [Methyl-(3-{5-[6-(6-methyl-pyridin-2-yl)-1H-pyrrolo[2,3-b]pyridin-4-yl]-pyridin-3-yl}-benzyl)-amino]-acetic acid methyl ester] | 17
22 | Cc1cccc(-c2cc(-c3cncc(-c4cccc(CN(C)CCO)c4)c3)c3cc[nH]c3n2)n1 [Example 142, 2-[Methyl-(3-{5-[6-(6-methyl-pyridin-2-yl)-1H-pyrrolo[2,3-b]pyridin-4-yl]-pyridin-3-yl}-benzyl)-amino]-ethanol] | 10
23 | Cc1cccc(-c2cc(-c3cncc(-c4cccc(CN(C)CC(=O)O)c4)c3)c3cc[nH]c3n2)n1 [Example 143, [Methyl-(3-{5-[6-(6-methyl-pyridin-2-yl)-1H-pyrrolo[2,3-b]pyridin-4-yl]-pyridin-3-yl}-benzyl)-amino]-acetic acid] | 30
24 | Cc1cccc(-c2nc(-c3cncc(-c4cccc(CN(C)CCO)c4)c3)c3cc[nH]c3n2)n1 [Example 144, 2-[Methyl-(3-{5-[2-(6-methyl-pyridin-2-yl)-7H-pyrrolo[2,3-d]pyrimidin-4-yl]-pyridin-3-yl}-benzyl)-amino]-ethanol] | 19
25 | Cc1cccc(-c2nc(-c3cncc(-c4cccc(CN(C)CC(=O)O)c4)c3)c3cc[nH]c3n2)n1 [Example 145] | 26
26 | COC(=O)CNCc1cccc(-c2cncc(-c3nc(-c4cccc(C)n4)nc4[nH]ccc34)c2)c1 [Example 146, (3-{5-[2-(6-Methyl-pyridin-2-yl)-7H-pyrrolo[2,3-d]pyrimidin-4-yl]-pyridin-3-yl}-benzylamino)-acetic acid methyl ester] | 27
27 | Cc1cccc(-c2nc(-c3cncc(-c4cccc(CNCCO)c4)c3)c3cc[nH]c3n2)n1 [Example 147, 2-(3-{5-[2-(6-Methyl-pyridin-2-yl)-7H-pyrrolo[2,3-d]pyrimidin-4-yl]-pyridin-3-yl}-benzylamino)-ethanol] | 10
28 | Cc1cccc(-c2nc(-c3cncc(-c4cccc(CNCC(=O)O)c4)c3)c3cc[nH]c3n2)n1 [Example 148, (3-{5-[2-(6-Methyl-pyridin-2-yl)-7H-pyrrolo[2,3-d]pyrimidin-4-yl]-pyridin-3-yl}-benzylamino)-acetic acid] | 17
29 | COC(=O)CNCc1ccc(-c2cncc(-c3nc(-c4cccc(C)n4)nc4[nH]ccc34)c2)cc1 [Example 149, (4-{5-[2-(6-Methyl-pyridin-2-yl)-7H-pyrrolo[2,3-d]pyrimidin-4-yl]-pyridin-3-yl}-benzylamino)-acetic acid methyl ester] | 8
30 | Cc1cccc(-c2nc(-c3cncc(-c4ccc(CNCC(=O)O)cc4)c3)c3cc[nH]c3n2)n1 [Example 150, (4-{5-[2-(6-Methyl-pyridin-2-yl)-7H-pyrrolo[2,3-d]pyrimidin-4-yl]-pyridin-3-yl}-benzylamino)-acetic acid] | 17
31 | Cc1cccc(-c2nc(-c3cncc(-c4ccc(CNCCO)cc4)c3)c3cc[nH]c3n2)n1 [Example 151] | 5.8
